Laboratory results: patent US20100305202A1, “LYOPHILIZED PHARMACEUTICAL COMPOSITION WITH IMPROVED STABILITY CONTAINING TAXANE DERIVATIVES, AND METHOD OF MANUFACTURING THE SAME” (priority 2007, published 2010)

Tests used:
[1] = Solubility of docetaxel in distilled water with PVP and HPBCD (Experimental Example 1); assay type: physicochemical
Procedure: The solubility of docetaxel was measured by performing liquid chromatography with UV detector (230 nm).
The solubility of docetaxel in distilled water proportionally increases between 10% and 30% of weight ratio (w/v %) of hydroxypropyl β-cyclodextrin (HPBCD).
Further, the ratio of HPBCD relative to docetaxel was at least 1:11 and the concentration of HPBCD will be lowered if the concentration unit (w/v) is converted into (mg/mL) unit. Therefore, docetaxel may be solubilized even when the ratio of docetaxel:HPBCD becomes smaller than 1:11. Therefore, according to the present invention, it is preferable to use more than 1 part by weight of hydroxypropyl β-cyclodextrin (HPBCD), and more preferably 5 parts by weight relative to 1 part by weight of the taxoid.

[2] = no additive; cited from earlier work

For `CC(=O)O[C@@]12CO[C@@H]1C[C@H](O)[C@@]1(C)C(=O)[C@H](O)C3=C(C)[C@@H](OC(=O)[C@H](O)[C@@H](NC(=O)OC(C)(C)C)c4ccccc4)C[C@@](O)([C@@H](OC(=O)c4ccccc4)[C@H]21)C3(C)C` [docetaxel], the “better solubility with HPBCD versus distilled water” value ([1]; 31.1 mg/mL versus 0.000025 mg/mL) is given as 1.2 million, the “solubility of docetaxel added with HPBCD in distilled water” value ([1]; with hydroxypropyl β-cyclodextrin (HPBCD)) is given as 31.1 mg/mL and the “commonly known solubility of docetaxel in distilled water” value [2] is given as 0.025 µg/mL.
